Measured values published in US7381521B2, “Anti-pathogenic composition useful in blood preservation” (Altachem Pharma Ltd., priority 2001, dated 2008).

How the values were obtained:
HIV-1 virus = assay: Infectivity of HIV-1 treated 10 minutes with product for normal human T lymphocytes (reverse transcriptase activity, ATI, in culture supernatants); format: cell-based
Excerpt: Infectivity is studied on T lymphocytes obtained from peripheral blood of a healthy human donor and separated on a Ficoll gradient.
The lymphocytes are stimulated for 3 days by phytohaemaglutinin P (PHA P) diluted to 1/500 and cultivated in a complete medium. The blastic cells T are infected by the virus, treated or not, in order to show up residual infectious strength.
The viruses obtained from a supernatant culture of an HIV-1 infected CEM line. This T lymphoblastoid line infected by HIV-1 is used for viral production.
The titer of the supernatant substances used is evaluated after quantitative analysis of the reverse transcriptase activity (ATI) of the virus.
In the following tests, a supernatant substance was used, the ATI of which was 1.8×10^6 cpm/ml.
Preparation of the viral solution: several tubes containing 1 ml viral supernatant, ATI 1.8×10^6 cmp/ml are, concentrated by ultracentrifugation. The resulting virus residues are taken up either by each of the different dilutions of QACs produced in sterile bidistilled water or by water (untreated control virus).
Treatment of viral preparations: the concentrated viral preparations are all treated according to the following procedure:
Treated virus samples: the virus residues concentrated by ultracentrifugation are resuspended in 100, μl of each of the concentrations in terms of products (QACs) studied and incubated for 10 minutes.
Control viral sample: untreated control virus: the product is replaced by 100 μl of sterile bidistilled water.
Following this 10 minute incubation time, the virus present in each sample is rinsed and then reconcentrated by addition of 12 ml of RPMI 1640 medium and ultracentrifugation. The virus residues are then taken up in 1 ml of complete medium and used for infecting normal human T lymphocytes.
Measurement of the infectivity of the samples: 4×10^6 normal human T lymphocytes are infected with each of the treated viral preparations or controls mentioned hereinabove. Infection of the T cells is carried out according to a previously described method (F. Barre Sinoussi et al. Science, 1983, 220:868-871): to sum up, 4×10^6 cells in suspension in 1 ml of complete medium are incubated with 1 ml of each of the treated vial preparations or controls for 1 hour at 37° C.
After two washings using several millilitres of culture medium, the cellular suspensions are adjusted to the concentration of 1×10^6 cells per ml. The day of the infection is regarded as day 0.
Viral production during the course of time is determined by measuring the reverse transcriptase activity present in the culture supernatants using the procedure described below.
This quantitative analysis makes it possible to evaluate the presence of noninactivated residual virus in the staring sample. It is carried out on a basis of 1 ml of culture supernatant taken every 2 or 3 days and ultracentrifuged.
The enzymatic activities are measured in 50 μl of a reaction mixture containing 50 mM Tris pH 7.8, 20 mM MgCl2, 20 mM KCl, 2 mM dithiotreitol, 0.25 OD/ml, oligo dT, 0.25 OD/ml poly rA, 0.1% Triton×100 and 2.5 μCi 3H DTTP.
After incubation for 1 hour at 37° C., the reaction is stopped by the addition of 10 μl of 0.2 M EDTA and the samples are deposited on DE81 membranes.
After several washings using 5% Na2HPO4, then by distilled water, the membranes are dried and the radioactivity measured by means of a p scintillation counter (PACKARD).

[1] = tested on: Candida albicans ATCC 1031; assay: Test 2 (DGHM), growth inhibition by dilutions, 72 hours at 37° C.; format: cell-based
Experimental: Another test was carried out a basis of the following solutions • 100 ml of a 0.1% solution of chlorohexidine digluconate (pH 6); and • 100 ml of a 0.1% solution of Bardac22®.
The activity of these solutions, alone or in combination, was more particularly tested in respect of Staphylococcus aureus ATCC 6538, Escherichia coli ATCC 11229 and Candida albicans ATCC 10231.
The tests were conducted in accordance with the procedure described in Chapter I/2.1 and 2.2 of Tichtlinien für die Prüfung und Bewertung chemischer Desinfektionsverfahren der DGHM/Guidelines for Testing and Evaluating Chemical Disinfection Processes of DGHM as at 1.1, 1981.
Tables IX, X and XI respectively illustrate the bactericidal and fungicidal activity of a 0.1% aqueous solution of chlorohexidine digluconate, a 0.1% aqueous solution of Bardac22® and a mixture of equal parts of both compounds. The procedures of which these Tables illustrate the results comprise incubation of 72 hours at 37° C. and the use of the following inactivating substances as controls: • A: 3% Tween®80+0.3% lecithin+0.1% cysteine • B: 3% Tween®80+3% saponin+0.1% cysteine+0.1% histidine; • C: 3% Tween®80+0.3% lecithin+0.1% histidine+0.5% sodium thiosulphate.
In these Tables, the sign “+” indicates an increase and the sign “−” denotes the absence of growth.

[2] = 0.00625% vol/vol, inactivator A
[3] = 0.00625% vol/vol, inactivator B
[4] = 0.00625% vol/vol, inactivator C
[5] = 0.00625% vol/vol, no inactivator
[6] = 0.0125% vol/vol, no inactivator

## CCCCCCCCCC[N+](C)(C)CCCCCCCCCC.[Cl-] [Bardac ®, didecyl dimethyl ammonium chloride]
HIV-1 virus; Bardac 0.0004%, J3
  ATI in supernatant: 702 cpm/ml
HIV-1 virus; Bardac 0.0004%, J6
  ATI in supernatant: 18136 cpm/ml
HIV-1 virus; Bardac 0.0004%, J10
  ATI in supernatant: 117326 cpm/ml
HIV-1 virus; Bardac 0.0004%, J13
  ATI in supernatant: 74214 cpm/ml
HIV-1 virus; Bardac 0.0004%, J17
  ATI in supernatant: 50674 cpm/ml
HIV-1 virus; Bardac 0.0004%, J20
  ATI in supernatant: 22478 cpm/ml
HIV-1 virus; Bardac 0.0004%, J23
  ATI in supernatant: 13806 cpm/ml
HIV-1 virus; Bardac 0.0004%, J27
  ATI in supernatant: 7800 cpm/ml
HIV-1 virus; Bardac 0.0004%, J30
  ATI in supernatant: 4426 cpm/ml
HIV-1 virus; Bardac 0.002%, J3
  ATI in supernatant: 464 cpm/ml
HIV-1 virus; Bardac 0.002%, J6
  ATI in supernatant: 2472 cpm/ml
HIV-1 virus; Bardac 0.002%, J10
  ATI in supernatant: 16066 cpm/ml
HIV-1 virus; Bardac 0.002%, J13
  ATI in supernatant: 24902 cpm/ml
HIV-1 virus; Bardac 0.002%, J17
  ATI in supernatant: 77754 cpm/ml
HIV-1 virus; Bardac 0.002%, J20
  ATI in supernatant: 75554 cpm/ml
HIV-1 virus; Bardac 0.002%, J23
  ATI in supernatant: 101394 cpm/ml
HIV-1 virus; Bardac 0.002%, J27
  ATI in supernatant: 80560 cpm/ml
HIV-1 virus; Bardac 0.002%, J30
  ATI in supernatant: 64692 cpm/ml
HIV-1 virus; Bardac 0.004%, J3
  ATI in supernatant: 346 cpm/ml
HIV-1 virus; Bardac 0.004%, J6
  ATI in supernatant: 298 cpm/ml
HIV-1 virus; Bardac 0.004%, J10
  ATI in supernatant: 160 cpm/ml
HIV-1 virus; Bardac 0.004%, J13
  ATI in supernatant: 170 cpm/ml
HIV-1 virus; Bardac 0.004%, J17
  ATI in supernatant: 350 cpm/ml
HIV-1 virus; Bardac 0.004%, J20
  ATI in supernatant: 218 cpm/ml
HIV-1 virus; Bardac 0.004%, J23
  ATI in supernatant: 444 cpm/ml
HIV-1 virus; Bardac 0.004%, J27
  ATI in supernatant: 244 cpm/ml
HIV-1 virus; Bardac 0.004%, J30
  ATI in supernatant: 264 cpm/ml
HIV-1 virus; Bardac 0.006%, J3
  ATI in supernatant: 320 cpm/ml
HIV-1 virus; Bardac 0.006%, J6
  ATI in supernatant: 326 cpm/ml
HIV-1 virus; Bardac 0.006%, J10
  ATI in supernatant: 204 cpm/ml
HIV-1 virus; Bardac 0.006%, J13
  ATI in supernatant: 248 cpm/ml
HIV-1 virus; Bardac 0.006%, J17
  ATI in supernatant: 364 cpm/ml
HIV-1 virus; Bardac 0.006%, J20
  ATI in supernatant: 180 cpm/ml
HIV-1 virus; Bardac 0.006%, J23
  ATI in supernatant: 328 cpm/ml
HIV-1 virus; Bardac 0.006%, J27
  ATI in supernatant: 588 cpm/ml
HIV-1 virus; Bardac 0.006%, J30
  ATI in supernatant: 196 cpm/ml
HIV-1 virus; Bardac 0.01%, J3
  ATI in supernatant: 334 cpm/ml
HIV-1 virus; Bardac 0.01%, J6
  ATI in supernatant: 222 cpm/ml
HIV-1 virus; Bardac 0.01%, J10
  ATI in supernatant: 1768 cpm/ml
HIV-1 virus; Bardac 0.01%, J13
  ATI in supernatant: 1592 cpm/ml
HIV-1 virus; Bardac 0.01%, J17
  ATI in supernatant: 190 cpm/ml
HIV-1 virus; Bardac 0.01%, J20
  ATI in supernatant: 390 cpm/ml
HIV-1 virus; Bardac 0.01%, J23
  ATI in supernatant: 1328 cpm/ml
HIV-1 virus; Bardac 0.01%, J27
  ATI in supernatant: 780 cpm/ml
HIV-1 virus; Bardac 0.01%, J30
  ATI in supernatant: 1000 cpm/ml
[1]
  concentration of active substance inhibiting growth: 0.0001%
  dilution of the 0.1% solution inhibiting growth: 0.1%
[1]; [2]
  growth: +
[1]; [3]
  growth: +
[1]; [4]
  growth: +
[1]; [5]
  growth: +
[1]; 0.0125% vol/vol, inactivator A
  growth: +
[1]; 0.0125% vol/vol, inactivator B
  growth: +
[1]; 0.0125% vol/vol, inactivator C
  growth: +
[1]; [6]
  growth: +
[1]; 0.025% vol/vol, inactivator A
  growth: +
[1]; 0.025% vol/vol, inactivator B
  growth: +
[1]; 0.025% vol/vol, inactivator C
  growth: +
[1]; 0.025% vol/vol, no inactivator
  growth: +
[1]; 0.05% vol/vol, inactivator A
  growth: +
[1]; 0.05% vol/vol, inactivator B
  growth: +
[1]; 0.05% vol/vol, inactivator C
  growth: +
[1]; 0.05% vol/vol, no inactivator
  growth: +
[1]; 0.1% vol/vol, inactivator A
  growth: +
[1]; 0.1% vol/vol, inactivator B
  growth: +
[1]; 0.1% vol/vol, inactivator C
  growth: +
[1]; 0.1% vol/vol, no inactivator
  growth: −
[1]; 0.5% vol/vol, inactivator A
  growth: +
[1]; 0.5% vol/vol, inactivator B
  growth: +
[1]; 0.5% vol/vol, inactivator C
  growth: +
[1]; 0.5% vol/vol, no inactivator
  growth: −
[1]; 1.0% vol/vol, inactivator A
  growth: +
[1]; 1.0% vol/vol, inactivator B
  growth: +
[1]; 1.0% vol/vol, inactivator C
  growth: +
[1]; 1.0% vol/vol, no inactivator
  growth: −

## [H]/N=C(\N/C(=N/[H])NCCCCCCNC(=N)NC(=N)Nc1ccc(Cl)cc1)Nc1ccc(Cl)cc1 [Chlorhexidine, chlorohexidine digluconate, reference compound]
HIV-1 virus; Chlorhexidine 0.005%, J3
  ATI in supernatant: 360 cpm/ml
HIV-1 virus; Chlorhexidine 0.005%, J10
  ATI in supernatant: 580 cpm/ml
HIV-1 virus; Chlorhexidine 0.005%, J30
  ATI in supernatant: 720 cpm/ml
HIV-1 virus; Chlorhexidine 0.01%, J10
  ATI in supernatant: 200 cpm/ml
HIV-1 virus; Chlorhexidine 0.01%, J13
  ATI in supernatant: 250 cpm/ml
HIV-1 virus; Chlorhexidine 0.01%, J17
  ATI in supernatant: 230 cpm/ml
HIV-1 virus; Chlorhexidine 0.01%, J27
  ATI in supernatant: 420 cpm/ml
[1]
  concentration of active substance inhibiting growth: 0.001%
  dilution of the 0.1% solution inhibiting growth: 1%
[1]; [2]
  growth: +
[1]; [3]
  growth: +
[1]; [4]
  growth: +
[1]; [5]
  growth: +
[1]; 0.0125% vol/vol, inactivator A
  growth: +
[1]; 0.0125% vol/vol, inactivator B
  growth: +
[1]; 0.0125% vol/vol, inactivator C
  growth: +
[1]; [6]
  growth: +
[1]; 0.025% vol/vol, inactivator A
  growth: +
[1]; 0.025% vol/vol, inactivator B
  growth: +
[1]; 0.025% vol/vol, inactivator C
  growth: +
[1]; 0.025% vol/vol, no inactivator
  growth: +
[1]; 0.05% vol/vol, inactivator A
  growth: +
[1]; 0.05% vol/vol, inactivator B
  growth: +
[1]; 0.05% vol/vol, inactivator C
  growth: +
[1]; 0.05% vol/vol, no inactivator
  growth: +
[1]; 0.1% vol/vol, inactivator A
  growth: +
[1]; 0.1% vol/vol, inactivator B
  growth: +
[1]; 0.1% vol/vol, inactivator C
  growth: +
[1]; 0.1% vol/vol, no inactivator
  growth: +
[1]; 0.5% vol/vol, inactivator A
  growth: +
[1]; 0.5% vol/vol, inactivator B
  growth: +
[1]; 0.5% vol/vol, inactivator C
  growth: +
[1]; 0.5% vol/vol, no inactivator
  growth: +
[1]; 1.0% vol/vol, inactivator A
  growth: +
[1]; 1.0% vol/vol, inactivator B
  growth: +
[1]; 1.0% vol/vol, inactivator C
  growth: +
[1]; 1.0% vol/vol, no inactivator
  growth: −
